In assay [1] the target is Btk (Mus musculus (Mouse), UniProt P35991). In words: Btk occupancy in vivo (PBMCs or splenocytes, PCI-33380 labeling). The following applies: 4 hours after dosing, Babc/L mice.
Description: For analysis of Btk occupancy in Babc/L mice following oral dosing of compounds after 4 hours. Isolating peripheral blood mononuclear cells (PBMCs) with mouse peripheral blood separation kit (Hao Yang Biological Manufacture CO., LTD, Tianjin) were collected from Babc/L mice (1 ml blood from two mice). Spleens were processed to splenocytes followed by 5 min incubation in red blood cell lysing buffer (from mouse peripheral blood separation kit).
Assay [2] has as its target T1, BTK (Homo sapiens (Human), UniProt Q06187).
Description: (§1) Btk kinase activity was determined using a homogenous time resolved fluorescence (HTRF) methodology. Measurements were performed in a reaction volume of 15 μL using 384-well assay plates. Kinase enzyme, inhibitor, ATP and 1 μM peptide substrate were incubated in a reaction buffer compose of Hepes50 mM (pH7.0), NaN3 0.02%, BSA 0.01%, Orthocanadate 0.1 mM. […] For each compound, enzyme activity as measured at various concentrations of compound, Negative control reactions were performed in the absence of inhibitor in two replicates and eight no enzyme controls were used to determine baseline fluorescence levels.
For assay [3], the target named is LYN (Homo sapiens (Human), UniProt P07948). The following applies: read-out: LYN IC50, [ATP]=20 μM.
Description: as §1
(§2) For LYN assay, [ATP]=20 μM, LYN=0.12 n M. For LCK assay, [ATP]=20 μM, LCK=0.2 nM.
In assay [4] the target is LCK (Homo sapiens (Human), UniProt P06239). The following applies: read-out: LCK IC50; [ATP]=20 μM, LCK=0.2 nM.
Sequence of LCK (P06239 whole entry, looked up, species assumed): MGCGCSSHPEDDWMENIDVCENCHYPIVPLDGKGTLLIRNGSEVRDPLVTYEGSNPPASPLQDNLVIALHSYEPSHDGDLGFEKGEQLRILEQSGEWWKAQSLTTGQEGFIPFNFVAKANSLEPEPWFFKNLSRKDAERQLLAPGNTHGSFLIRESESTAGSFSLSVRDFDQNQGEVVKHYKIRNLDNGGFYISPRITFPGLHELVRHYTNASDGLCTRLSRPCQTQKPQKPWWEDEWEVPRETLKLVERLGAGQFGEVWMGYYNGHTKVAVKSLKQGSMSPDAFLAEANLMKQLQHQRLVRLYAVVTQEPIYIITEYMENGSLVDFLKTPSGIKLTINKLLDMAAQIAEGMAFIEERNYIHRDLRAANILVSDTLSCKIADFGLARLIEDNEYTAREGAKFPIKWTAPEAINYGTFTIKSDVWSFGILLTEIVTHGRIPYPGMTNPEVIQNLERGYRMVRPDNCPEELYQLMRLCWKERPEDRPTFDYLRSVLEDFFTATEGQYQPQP
Description: as §1, §2
Assay [5] has as its target TEC (Homo sapiens (Human), UniProt P42680). In words: biochemical.
Assay [6] has as its target EGFR (Homo sapiens (Human), UniProt P00533). The assay is described as follows: biochemical.
Assay [7] addresses ITK (Homo sapiens (Human), UniProt Q08881). The assay is described as follows: biochemical.
Assay [8] addresses T1, BTK. The assay is described as follows: biochemical.
Description: as §1

Where two headings read alike, the source gives them in different places.

Sequence of Btk (P35991 whole entry, looked up): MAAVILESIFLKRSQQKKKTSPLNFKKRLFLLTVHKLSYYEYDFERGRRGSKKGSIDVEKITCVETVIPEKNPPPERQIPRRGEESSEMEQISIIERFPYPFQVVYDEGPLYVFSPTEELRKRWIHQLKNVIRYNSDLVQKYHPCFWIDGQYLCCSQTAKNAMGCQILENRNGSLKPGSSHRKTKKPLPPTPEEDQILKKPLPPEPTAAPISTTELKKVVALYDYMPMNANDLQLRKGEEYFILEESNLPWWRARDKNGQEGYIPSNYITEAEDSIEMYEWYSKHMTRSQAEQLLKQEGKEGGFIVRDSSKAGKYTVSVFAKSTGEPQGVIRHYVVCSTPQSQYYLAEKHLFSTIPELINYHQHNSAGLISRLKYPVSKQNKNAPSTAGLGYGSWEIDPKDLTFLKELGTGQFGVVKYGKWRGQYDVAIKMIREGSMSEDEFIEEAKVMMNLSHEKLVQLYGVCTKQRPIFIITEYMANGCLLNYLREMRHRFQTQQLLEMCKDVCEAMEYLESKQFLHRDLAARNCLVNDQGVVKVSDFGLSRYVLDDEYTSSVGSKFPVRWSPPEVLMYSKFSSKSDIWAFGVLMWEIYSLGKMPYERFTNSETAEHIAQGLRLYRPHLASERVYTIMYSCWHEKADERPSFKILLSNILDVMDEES
Sequence of TEC (P42680 whole entry, looked up): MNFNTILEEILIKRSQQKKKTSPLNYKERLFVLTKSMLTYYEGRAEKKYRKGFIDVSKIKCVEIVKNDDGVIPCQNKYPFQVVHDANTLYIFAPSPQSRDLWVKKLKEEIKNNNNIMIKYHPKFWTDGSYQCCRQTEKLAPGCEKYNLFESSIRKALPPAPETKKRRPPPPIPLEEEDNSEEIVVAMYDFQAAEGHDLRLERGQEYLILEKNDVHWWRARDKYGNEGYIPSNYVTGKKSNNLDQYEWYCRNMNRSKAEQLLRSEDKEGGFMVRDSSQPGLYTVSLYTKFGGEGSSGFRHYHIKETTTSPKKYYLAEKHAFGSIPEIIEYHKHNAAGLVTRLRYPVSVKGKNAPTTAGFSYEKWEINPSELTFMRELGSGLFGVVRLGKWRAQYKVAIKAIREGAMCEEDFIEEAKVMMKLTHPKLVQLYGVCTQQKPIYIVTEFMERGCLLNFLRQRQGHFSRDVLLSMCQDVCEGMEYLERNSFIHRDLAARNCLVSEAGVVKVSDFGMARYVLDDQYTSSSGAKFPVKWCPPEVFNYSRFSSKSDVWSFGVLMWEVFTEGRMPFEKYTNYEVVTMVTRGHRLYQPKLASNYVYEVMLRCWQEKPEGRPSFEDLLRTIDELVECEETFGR
Sequence of ITK (Q08881 whole entry, looked up, species assumed): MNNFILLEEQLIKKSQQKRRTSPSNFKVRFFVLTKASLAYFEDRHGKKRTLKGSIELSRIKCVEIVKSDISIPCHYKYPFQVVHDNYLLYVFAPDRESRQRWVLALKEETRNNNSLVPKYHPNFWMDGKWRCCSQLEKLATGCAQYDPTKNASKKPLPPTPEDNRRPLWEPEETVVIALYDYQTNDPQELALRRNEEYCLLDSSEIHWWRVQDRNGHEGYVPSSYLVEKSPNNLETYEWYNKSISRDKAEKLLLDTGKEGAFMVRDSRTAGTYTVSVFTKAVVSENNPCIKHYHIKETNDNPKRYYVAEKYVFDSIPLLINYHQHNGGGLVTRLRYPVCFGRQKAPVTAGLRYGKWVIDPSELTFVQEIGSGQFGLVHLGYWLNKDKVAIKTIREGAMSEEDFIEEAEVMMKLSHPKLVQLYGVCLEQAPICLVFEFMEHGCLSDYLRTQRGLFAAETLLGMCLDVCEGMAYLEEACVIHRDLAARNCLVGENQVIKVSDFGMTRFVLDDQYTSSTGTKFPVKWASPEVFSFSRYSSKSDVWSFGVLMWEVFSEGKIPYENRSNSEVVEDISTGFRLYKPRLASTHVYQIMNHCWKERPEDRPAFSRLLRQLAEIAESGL
Sequence of EGFR (P00533 whole entry, looked up, species assumed): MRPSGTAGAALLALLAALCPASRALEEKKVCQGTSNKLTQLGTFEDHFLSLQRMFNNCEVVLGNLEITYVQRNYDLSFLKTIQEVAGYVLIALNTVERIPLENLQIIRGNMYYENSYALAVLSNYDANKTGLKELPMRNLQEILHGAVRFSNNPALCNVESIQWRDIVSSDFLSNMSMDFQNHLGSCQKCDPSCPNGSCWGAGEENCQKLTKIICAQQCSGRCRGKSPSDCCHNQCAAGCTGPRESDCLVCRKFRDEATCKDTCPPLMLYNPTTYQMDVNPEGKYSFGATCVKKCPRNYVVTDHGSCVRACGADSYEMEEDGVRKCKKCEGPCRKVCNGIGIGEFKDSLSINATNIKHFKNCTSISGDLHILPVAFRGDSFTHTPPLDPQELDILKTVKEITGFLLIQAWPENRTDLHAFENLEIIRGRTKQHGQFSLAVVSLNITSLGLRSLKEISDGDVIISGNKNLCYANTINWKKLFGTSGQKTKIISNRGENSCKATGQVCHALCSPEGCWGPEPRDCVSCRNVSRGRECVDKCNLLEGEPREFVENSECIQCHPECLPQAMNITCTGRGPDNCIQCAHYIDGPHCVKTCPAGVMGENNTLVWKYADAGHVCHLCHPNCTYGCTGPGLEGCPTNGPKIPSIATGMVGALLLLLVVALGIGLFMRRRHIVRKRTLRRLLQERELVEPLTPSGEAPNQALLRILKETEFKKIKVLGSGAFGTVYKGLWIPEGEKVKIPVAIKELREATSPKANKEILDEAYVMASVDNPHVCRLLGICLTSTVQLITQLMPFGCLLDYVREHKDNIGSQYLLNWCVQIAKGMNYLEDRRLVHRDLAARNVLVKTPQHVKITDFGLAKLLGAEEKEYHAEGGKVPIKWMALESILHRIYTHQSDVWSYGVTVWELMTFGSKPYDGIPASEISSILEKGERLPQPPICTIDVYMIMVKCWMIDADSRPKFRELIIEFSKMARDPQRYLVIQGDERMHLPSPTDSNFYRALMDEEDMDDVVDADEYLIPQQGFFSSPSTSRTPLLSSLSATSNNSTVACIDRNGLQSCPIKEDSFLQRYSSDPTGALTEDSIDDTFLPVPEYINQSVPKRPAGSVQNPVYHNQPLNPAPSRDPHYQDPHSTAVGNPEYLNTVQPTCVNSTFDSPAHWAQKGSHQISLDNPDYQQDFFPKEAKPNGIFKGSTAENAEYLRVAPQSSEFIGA
Sequence of LYN (P07948 whole entry, looked up, species assumed): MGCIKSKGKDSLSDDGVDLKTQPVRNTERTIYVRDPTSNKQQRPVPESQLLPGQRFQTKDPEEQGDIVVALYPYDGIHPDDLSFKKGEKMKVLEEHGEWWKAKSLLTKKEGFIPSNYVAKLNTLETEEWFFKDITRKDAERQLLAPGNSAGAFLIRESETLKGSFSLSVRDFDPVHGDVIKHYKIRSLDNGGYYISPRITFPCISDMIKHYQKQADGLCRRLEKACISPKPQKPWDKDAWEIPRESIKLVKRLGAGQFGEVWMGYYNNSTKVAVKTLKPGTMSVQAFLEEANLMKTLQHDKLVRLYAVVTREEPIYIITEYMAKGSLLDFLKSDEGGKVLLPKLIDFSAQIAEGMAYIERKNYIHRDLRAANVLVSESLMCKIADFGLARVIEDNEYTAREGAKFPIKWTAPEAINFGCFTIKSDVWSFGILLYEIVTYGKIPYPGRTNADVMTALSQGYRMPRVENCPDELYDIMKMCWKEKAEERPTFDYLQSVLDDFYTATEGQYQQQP
T1 sequence (Q06187 whole entry, looked up, species assumed): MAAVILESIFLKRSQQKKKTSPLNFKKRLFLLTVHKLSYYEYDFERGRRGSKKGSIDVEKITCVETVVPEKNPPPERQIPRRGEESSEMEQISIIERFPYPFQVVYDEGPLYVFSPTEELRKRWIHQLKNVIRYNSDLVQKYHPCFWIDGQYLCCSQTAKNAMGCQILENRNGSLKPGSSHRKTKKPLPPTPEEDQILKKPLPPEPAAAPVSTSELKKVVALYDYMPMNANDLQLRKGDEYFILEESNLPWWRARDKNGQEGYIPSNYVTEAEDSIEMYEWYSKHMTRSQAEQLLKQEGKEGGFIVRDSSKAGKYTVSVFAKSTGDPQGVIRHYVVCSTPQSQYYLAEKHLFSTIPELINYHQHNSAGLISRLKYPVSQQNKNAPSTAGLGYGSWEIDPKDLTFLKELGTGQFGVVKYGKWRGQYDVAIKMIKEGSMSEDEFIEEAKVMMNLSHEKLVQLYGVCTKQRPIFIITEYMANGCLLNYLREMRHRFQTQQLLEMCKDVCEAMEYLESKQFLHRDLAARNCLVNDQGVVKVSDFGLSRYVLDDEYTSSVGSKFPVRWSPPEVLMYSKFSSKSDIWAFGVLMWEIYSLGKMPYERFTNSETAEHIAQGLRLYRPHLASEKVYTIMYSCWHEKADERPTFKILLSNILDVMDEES

Turning to `C=CC(=O)N1CCC[C@@H](c2nc(-c3ccc(Oc4cccc(OC)c4F)cc3)c3cnccn23)C1` [Example 1, (R)-1-(3-(1-(4-(2-fluoro-3-methoxyphenoxy)phenyl)imidazo[1,5-a]pyrazin-3-yl)piperidin-1-yl)prop-2-en-1-one], the “Btk occupancy in vivo” value in assay [1] (5 mg/kg single oral dose) is “full occupancy”. For the same molecule, the IC50 in assay [2] (read-out: BTK IC50) was less than 10 nM; in assay [2] (read-out: BTK Inhibition) it was less than 10 nM; in assay [3], greater than 10000 nM; in assay [4] it was greater than 10000 nM; in assay [5] it was 100 to 1000 nM; in assay [6] it was 100 to 1000 nM. Moreover, in assay [7], the IC50 lay in the range of 1000 to 10000 nM.

`CC#CC(=O)N1CCCC[C@H]1c1nc(-c2ccc(Oc3cccc(OC)c3F)cc2)c2c(C)nccn12` [Example 5, (S)-1-(2-(1-(4-(2-Fluoro-3-methoxyphenoxy)phenyl)-8-methylimidazo[1,5-a]pyrazin-3-yl)piperidin-1-yl)but-2-yn-1-one]: the “Btk occupancy in vivo” value in assay [1] (10 mg/kg single oral dose) is listed as “full occupancy”.

On to `C=CC(=O)N1CCC[C@H]1c1nc(-c2ccc(Oc3cccc(OC)c3)cc2)c2cnccn12` [Example 16, (S)-1-(2-(1-(4-(3-methoxyphenoxy)phenyl)imidazo[1,5-a]pyrazin-3-yl)pyrrolidin-1-yl)prop-2-en-1-one], for which the IC50 in assay [2] (read-out: BTK IC50) was less than 10 nM; in assay [2] (read-out: BTK Inhibition), less than 10 nM; in assay [3], greater than 10000 nM; in assay [4], greater than 10000 nM; in assay [5], 100 to 1000 nM; in assay [6], 1000 to 10000 nM. In addition, in assay [7], the IC50 is 1000 to 10000 nM.

Regarding `C=CC(=O)N1CCC[C@H]1c1nc(-c2ccc(Oc3cccc(F)c3F)cc2)c2cnccn12` [Example 20, (S)-1-(2-(1-(4-(2,3-difluorophenoxy)phenyl)imidazo[1,5-a]pyrazin-3-yl)pyrrolidin-1-yl)prop-2-en-1-one], the IC50 in assay [2] (read-out: BTK IC50) is less than 10 nM; in assay [2] (read-out: BTK Inhibition), less than 10 nM; in assay [3] it was greater than 10000 nM; in assay [4], greater than 10000 nM; in assay [5] it was 100 to 1000 nM; in assay [6], 1000 to 10000 nM. In assay [7], this molecule displayed an IC50 of 1000 to 10000 nM.

Turning to `C=CC(=O)N1CCCC[C@H]1c1nc(-c2ccc(Oc3cccc(OC)c3F)cc2)c2c(C)nccn12` [Example 27, (S)-1-(2-(1-(4-(2-fluoro-3-methoxyphenoxy)phenyl)-8-methylimidazo[1,5-a]pyrazin-3-yl)piperidin-1-yl)prop-2-en-1-one], in assay [1] (10 mg/kg single oral dose), the “Btk occupancy in vivo” value is “full occupancy”. Moreover, the IC50 in assay [2] (read-out: BTK IC50) is less than 10 nM; in assay [2] (read-out: BTK Inhibition), less than 10 nM; in assay [3] it was greater than 10000 nM; in assay [4], greater than 10000 nM; in assay [5], 100 to 1000 nM; in assay [6], 100 to 1000 nM. This molecule also registered an IC50 in assay [7] of 1000 to 10000 nM.

Take `C=CC(=O)N1CCC[C@H]1c1nc(-c2ccc(Oc3cccc(OC)c3F)cc2)c2cnccn12` [Example 30, (S)-1-(2-(1-(4-(2-fluoro-3-methoxyphenoxy)phenyl)imidazo[1,5-a]pyrazin-3-yl)pyrrolidin-1-yl)prop-2-en-1-one]: in assay [1] (5 mg/kg single oral dose), the “Btk occupancy in vivo” value is “full occupancy”. The IC50 in assay [2] (read-out: BTK IC50) is less than 10 nM; in assay [2] (read-out: BTK Inhibition), less than 10 nM; in assay [3], greater than 10000 nM; in assay [4], greater than 10000 nM; in assay [5] it was 100 to 1000 nM.

Turning to `C=CC(=O)N1CCC[C@H]1c1nc(-c2ccc(OCc3c(F)cccc3F)cc2)c2cnccn12` [Example 136, (S)-1-(2-(1-(4-((2,6-difluorobenzyl)oxy)phenyl)imidazo[1,5-a]pyrazin-3-yl)pyrrolidin-1-yl)prop-2-en-1-one], the IC50 is 10 to 100 nM in assay [2] (read-out: BTK IC50); greater than 10000 nM in assay [3]; greater than 10000 nM in assay [4]; 10 to 100 nM in assay [8]; 100 to 1000 nM in assay [5]; 1000 to 10000 nM in assay [6]. In addition, in assay [7], the IC50 lay within 1000 to 10000 nM.

As to `CN(C)C(=O)N1CCCC[C@H]1c1nc(-c2ccc(C(=O)Nc3cc(C(F)(F)F)ccn3)cc2)c2c(C(F)(F)F)nccn12` [Example 216, (S)-N,N-dimethyl-2-(8-(trifluoromethyl)-1-(4-((4-(trifluoromethyl)pyridin-2-yl)carbamoyl)phenyl)imidazo[1,5-a]pyrazin-3-yl)piperidine-1-carboxamide], the IC50 in assay [2] (read-out: BTK Inhibition) is greater than 10000 nM.

Values taken from US10933063B2 (priority 2017, dated 2021).
